# According to publication PMC7315583, “Structure and Dynamics of a Thermostable Alcohol Dehydrogenase from the Antarctic Psychrophile Moraxella sp. TAE123” (ACS Omega, 2020):
# Target: MoADH (His-tagged alcohol dehydrogenase from Moraxella sp. TAE123) (Moraxella sp. TAE123, UniProt Q8GIX7)
# Set-up: gene adh
# Conditions: turnover, fixed 35 mM ethanol, NAD+ varied 0-4.0 mM; pH 7.4; 10-53 °C
# MoADH (His-tagged alcohol dehydrogenase from Moraxella sp. TAE123), sequence (Q8GIX7 whole entry): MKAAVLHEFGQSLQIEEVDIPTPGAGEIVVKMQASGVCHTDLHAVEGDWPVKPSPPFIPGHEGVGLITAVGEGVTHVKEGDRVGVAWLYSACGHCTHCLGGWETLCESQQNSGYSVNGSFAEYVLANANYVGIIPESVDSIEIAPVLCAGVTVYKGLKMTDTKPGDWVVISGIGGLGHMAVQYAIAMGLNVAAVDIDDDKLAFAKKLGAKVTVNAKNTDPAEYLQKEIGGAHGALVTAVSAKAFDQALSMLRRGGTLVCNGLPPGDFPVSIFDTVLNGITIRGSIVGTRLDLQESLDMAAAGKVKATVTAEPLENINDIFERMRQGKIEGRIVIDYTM
smiles,measurement,value
CCO [ethanol],"NADH absorbance at 340 nm, microplate reader",Ethanol oxidation reaction rates have been measured as a function of temperature
